Substitutions are numbered along the chain they refer to.
Assays:
P2X7R point mutant H85P = target: T1, P2X7R point mutant H85P (Homo sapiens, UniProt Q99572, H85P/I21V/M24R/N16P/N25R/Q22R/R20V/S23N/T19I/Y26L); assay: Two-electrode voltage clamp of ATP-evoked currents in Xenopus oocytes; assay type: cell-based; settings: EC90 ATP, mean ± S.E.M.
T1 construct: expressed in transfected cells; host or cells: Xenopus laevis oocytes (cRNA injection)
Protocol: (§1) Additional point mutants were made using the QuikChange mutagenesis kit (Stratagene California, La Jolla, CA). The production of the correct mutations and absence of coding errors was determined by DNA sequencing (Automated ABI Sequencing Service, University of Leicester, UK). cRNA was generated for the mutants and 50 nl (50 ng) was injected into manually defoliculated stage V Xenopus laevis oocytes using an Inject+Matic microinjector (J.A. Gabay, Inject+Matic, Geneva, Switzerland). Injected oocytes were stored at 16°C in ND96 buffer [in millimolar concentrations, NaCl 96, KCl 2, CaCl2 1.8, MgCl2 1, sodium pyruvate 5, and HEPES 5 (pH 7.6) supplemented with 50 μg/ml gentamycin and 50 μg/ml tetracycline]. Three to seven days postinjection two-electrode voltage clamp recordings were made from oocytes bathed in divalent-free ND96 buffer (in millimolar concentrations, NaCl 96, KCl 2, sodium pyruvate 5, HEPES 5, and 0.1 flufenamic acid, pH 7.6). Oocytes were voltage clamped at a holding potential of −60 mV with a GeneClamp500B amplifier (Molecular Devices).
(§2) Inhibition by the antagonists was expressed as the percentage of the peak current amplitude of an EC90 concentration of ATP recorded before the application of antagonist (ATP gave reproducible responses to ATP in the absence of antagonist). […]

[1] = target: T2, chimeric P2X7/1 receptor 105–114 (Homo sapiens, UniProt Q99572, E112P/G113K/I21V/K110V/L109I/M24R/N16P/N25R/Q22R/R20V/S23N/T19I/Y26L); assay: as above; assay type: cell-based
T2 construct: expressed in transfected cells; host or cells: Xenopus laevis oocytes (cRNA injection)
T2 sequence (Q99572 1-595 N16P/T19I/R20V/I21V/Q22R/S23N/M24R/N25R/Y26L/L109I/K110V/E112P/G113K): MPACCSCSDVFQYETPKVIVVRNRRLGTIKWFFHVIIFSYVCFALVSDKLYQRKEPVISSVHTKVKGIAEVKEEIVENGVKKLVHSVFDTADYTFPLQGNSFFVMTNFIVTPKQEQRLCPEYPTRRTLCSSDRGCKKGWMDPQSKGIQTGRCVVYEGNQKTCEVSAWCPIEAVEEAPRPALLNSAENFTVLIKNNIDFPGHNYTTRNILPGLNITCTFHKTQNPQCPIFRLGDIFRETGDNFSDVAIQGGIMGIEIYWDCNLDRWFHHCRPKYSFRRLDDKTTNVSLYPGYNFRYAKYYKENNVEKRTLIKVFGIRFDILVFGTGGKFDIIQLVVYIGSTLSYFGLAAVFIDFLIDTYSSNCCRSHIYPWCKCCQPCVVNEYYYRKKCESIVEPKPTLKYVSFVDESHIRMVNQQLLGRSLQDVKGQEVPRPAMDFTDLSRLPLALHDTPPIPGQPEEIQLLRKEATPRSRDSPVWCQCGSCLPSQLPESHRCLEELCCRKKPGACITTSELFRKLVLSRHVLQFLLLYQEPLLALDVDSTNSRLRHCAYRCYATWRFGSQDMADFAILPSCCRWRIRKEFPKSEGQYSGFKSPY
Protocol: as §1
(§3) Inhibition by the antagonists was expressed as the percentage of the peak current amplitude of an EC90 concentration of ATP recorded before the application of antagonist (ATP gave reproducible responses to ATP in the absence of antagonist). Inhibition curves were fitted with the Hill equation (variable slope) using GraphPad Prism 6 (GraphPad Software, San Diego, CA). […] Individual concentration-response curves were generated for individual experiments, and statistical analysis was carried out on the data generated. […] Data are shown as mean ± S.E.M. In all cases n ≥ 3 for all data points.

P2X7R point mutant M105A = target: T3, P2X7R point mutant M105A (Homo sapiens, UniProt Q99572, I21V/M105A/M24R/N16P/N25R/Q22R/R20V/S23N/T19I/Y26L); assay: as above; assay type: cell-based; settings: EC90 ATP, mean ± S.E.M.
T3 construct: expressed in transfected cells; host or cells: Xenopus laevis oocytes (cRNA injection)
Protocol: (§4) Injected oocytes were stored at 16°C in ND96 buffer [in millimolar concentrations, NaCl 96, KCl 2, CaCl2 1.8, MgCl2 1, sodium pyruvate 5, and HEPES 5 (pH 7.6) supplemented with 50 μg/ml gentamycin and 50 μg/ml tetracycline]. Three to seven days postinjection two-electrode voltage clamp recordings were made from oocytes bathed in divalent-free ND96 buffer (in millimolar concentrations, NaCl 96, KCl 2, sodium pyruvate 5, HEPES 5, and 0.1 flufenamic acid, pH 7.6). Oocytes were voltage clamped at a holding potential of −60 mV with a GeneClamp500B amplifier (Molecular Devices).
as §3

P2X7R point mutant E305A = target: T4, P2X7R point mutant E305A (Homo sapiens, UniProt Q99572, E305A/I21V/M24R/N16P/N25R/Q22R/R20V/S23N/T19I/Y26L); assay: as above; assay type: cell-based; settings: EC90 ATP, mean ± S.E.M.
T4 construct: expressed in transfected cells; host or cells: Xenopus laevis oocytes (cRNA injection)
Protocol: as §4, §3

[2] = target: T5, chimeric P2X7/1 receptor 279–285 (left flipper) (Homo sapiens, UniProt Q99572, DEL279-281/I21V/M24R/N16P/N25R/N284E/Q22R/R20V/S23N/T19I/T282Y/T283E/V285K/Y26L); assay: as above; assay type: cell-based; settings: chimera 279–285; for IC50: inhibition of EC90 ATP response
T5 construct: expressed in transfected cells; host or cells: Xenopus laevis oocytes (cRNA injection)
T5 sequence (Q99572 with tags, fused parts or gaps N16P/T19I/R20V/I21V/Q22R/S23N/M24R/N25R/Y26L/DEL279-281/T282Y/T283E/N284E/V285K): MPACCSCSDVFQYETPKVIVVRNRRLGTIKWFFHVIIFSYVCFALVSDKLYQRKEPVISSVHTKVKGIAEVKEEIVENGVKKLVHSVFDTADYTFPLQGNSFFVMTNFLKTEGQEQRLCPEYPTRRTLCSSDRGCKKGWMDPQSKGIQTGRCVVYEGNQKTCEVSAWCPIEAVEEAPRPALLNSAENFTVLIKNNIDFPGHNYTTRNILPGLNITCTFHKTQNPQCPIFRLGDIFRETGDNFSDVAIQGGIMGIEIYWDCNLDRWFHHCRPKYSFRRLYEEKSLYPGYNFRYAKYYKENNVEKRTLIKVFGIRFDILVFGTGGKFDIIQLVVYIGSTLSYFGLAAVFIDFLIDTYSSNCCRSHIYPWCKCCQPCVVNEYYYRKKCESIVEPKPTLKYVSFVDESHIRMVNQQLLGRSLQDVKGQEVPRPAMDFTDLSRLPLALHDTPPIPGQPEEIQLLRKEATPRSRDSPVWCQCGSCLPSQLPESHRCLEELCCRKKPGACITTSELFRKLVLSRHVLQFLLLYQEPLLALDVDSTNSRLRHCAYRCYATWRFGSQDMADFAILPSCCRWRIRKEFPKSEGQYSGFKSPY
Protocol: (§5) The production of the correct mutations and absence of coding errors was determined by DNA sequencing (Automated ABI Sequencing Service, University of Leicester, UK). cRNA was generated for the mutants and 50 nl (50 ng) was injected into manually defoliculated stage V Xenopus laevis oocytes using an Inject+Matic microinjector (J.A. Gabay, Inject+Matic, Geneva, Switzerland). Injected oocytes were stored at 16°C in ND96 buffer [in millimolar concentrations, NaCl 96, KCl 2, CaCl2 1.8, MgCl2 1, sodium pyruvate 5, and HEPES 5 (pH 7.6) supplemented with 50 μg/ml gentamycin and 50 μg/ml tetracycline]. Three to seven days postinjection two-electrode voltage clamp recordings were made from oocytes bathed in divalent-free ND96 buffer (in millimolar concentrations, NaCl 96, KCl 2, sodium pyruvate 5, HEPES 5, and 0.1 flufenamic acid, pH 7.6). Oocytes were voltage clamped at a holding potential of −60 mV with a GeneClamp500B amplifier (Molecular Devices).
as §3

P2X7R point mutant T90V = target: T6, P2X7R point mutant T90V (Homo sapiens, UniProt Q99572, I21V/M24R/N16P/N25R/Q22R/R20V/S23N/T19I/T90V/Y26L); assay: as above; assay type: cell-based; settings: EC90 ATP, mean ± S.E.M.
T6 construct: expressed in transfected cells; host or cells: Xenopus laevis oocytes (cRNA injection)
Protocol: as §1, §2

P2X7R point mutant V304C = target: T7, P2X7R point mutant V304C (Homo sapiens, UniProt Q99572, I21V/M24R/N16P/N25R/Q22R/R20V/S23N/T19I/V304C/Y26L); assay: as above; assay type: cell-based; settings: EC90 ATP, mean ± S.E.M.
T7 construct: expressed in transfected cells; host or cells: Xenopus laevis oocytes (cRNA injection)
Protocol: as §4, §3

[3] = target: T8, chimeric P2X7R with left flipper 280–284 of P2X4 (Homo sapiens, UniProt Q99572, D280T/I21V/K281R/M24R/N16P/N25R/N284E/Q22R/R20V/S23N/T19I/T282D/T283V/Y26L); assay: cell-based
T8 sequence (Q99572 1-595 N16P/T19I/R20V/I21V/Q22R/S23N/M24R/N25R/Y26L/D280T/K281R/T282D/T283V/N284E): T2 sequence (Q99572 1-595 N16P/T19I/R20V/I21V/Q22R/S23N/M24R/N25R/Y26L/L109I/K110V/E112P/G113K) with I109L, V110K, P112E, K113G, D280T, K281R, T282D, T283V, N284E
Protocol: as §5, §3

P2X7R point mutant F103A = target: T9, P2X7R point mutant F103A (Homo sapiens, UniProt Q99572, F103A/I21V/M24R/N16P/N25R/Q22R/R20V/S23N/T19I/Y26L); assay: cell-based
T9 construct: expressed in transfected cells; host or cells: Xenopus laevis oocytes (cRNA injection)
Protocol: as §4
Inhibition by the antagonists was expressed as the percentage of the peak current amplitude of an EC90 concentration of ATP recorded before the application of antagonist (ATP gave reproducible responses to ATP in the absence of antagonist). Inhibition curves were fitted with the Hill equation (variable slope) using GraphPad Prism 6 (GraphPad Software, San Diego, CA). […] Individual concentration-response curves were generated for individual experiments, and statistical analysis was carried out on the data generated. When shown in figures, the inhibition curves are fitted to the mean normalized data. […] Data are shown as mean ± S.E.M. In all cases n ≥ 3 for all data points.

P2X7R point mutant Y295A = target: T10, P2X7R point mutant Y295A (Homo sapiens, UniProt Q99572, I21V/M24R/N16P/N25R/Q22R/R20V/S23N/T19I/Y26L/Y295A); assay: Two-electrode voltage clamp of ATP-evoked currents in Xenopus oocytes; assay type: cell-based; settings: EC90 ATP, mean ± S.E.M.
T10 construct: expressed in transfected cells; host or cells: Xenopus laevis oocytes (cRNA injection)
T10 sequence (Q99572 whole entry N16P/T19I/R20V/I21V/Q22R/S23N/M24R/N25R/Y26L/Y295A): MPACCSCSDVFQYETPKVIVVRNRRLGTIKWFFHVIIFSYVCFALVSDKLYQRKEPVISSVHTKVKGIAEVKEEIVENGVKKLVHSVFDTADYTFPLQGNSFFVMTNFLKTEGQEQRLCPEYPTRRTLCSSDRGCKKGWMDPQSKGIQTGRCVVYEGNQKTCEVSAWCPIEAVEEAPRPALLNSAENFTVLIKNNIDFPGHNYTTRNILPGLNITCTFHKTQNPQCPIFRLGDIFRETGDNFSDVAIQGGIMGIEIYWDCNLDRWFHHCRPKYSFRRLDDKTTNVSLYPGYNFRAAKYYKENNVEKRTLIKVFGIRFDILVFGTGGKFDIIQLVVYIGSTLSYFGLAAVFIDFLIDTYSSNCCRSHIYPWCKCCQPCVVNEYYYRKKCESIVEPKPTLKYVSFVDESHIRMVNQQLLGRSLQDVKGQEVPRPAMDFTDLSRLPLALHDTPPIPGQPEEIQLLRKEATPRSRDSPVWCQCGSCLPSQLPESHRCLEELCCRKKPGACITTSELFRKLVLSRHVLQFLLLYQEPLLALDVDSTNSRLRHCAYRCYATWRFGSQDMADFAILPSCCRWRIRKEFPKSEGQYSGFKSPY
Protocol: as §1, §2

T1 sequence (Q99572 whole entry N16P/T19I/R20V/I21V/Q22R/S23N/M24R/N25R/Y26L/H85P): as the sequence (Q99572 whole entry N16P/T19I/R20V/I21V/Q22R/S23N/M24R/N25R/Y26L/Y295A) above, with H85P, A295Y counted along it
T7 sequence (Q99572 whole entry N16P/T19I/R20V/I21V/Q22R/S23N/M24R/N25R/Y26L/V304C): as the sequence (Q99572 whole entry N16P/T19I/R20V/I21V/Q22R/S23N/M24R/N25R/Y26L/Y295A) above, with A295Y, V304C counted along it
T4 sequence (Q99572 whole entry N16P/T19I/R20V/I21V/Q22R/S23N/M24R/N25R/Y26L/E305A): as the sequence (Q99572 whole entry N16P/T19I/R20V/I21V/Q22R/S23N/M24R/N25R/Y26L/Y295A) above, with A295Y, E305A counted along it
T9 sequence (Q99572 whole entry N16P/T19I/R20V/I21V/Q22R/S23N/M24R/N25R/Y26L/F103A): as the sequence (Q99572 whole entry N16P/T19I/R20V/I21V/Q22R/S23N/M24R/N25R/Y26L/Y295A) above, with F103A, A295Y counted along it
T6 sequence (Q99572 whole entry N16P/T19I/R20V/I21V/Q22R/S23N/M24R/N25R/Y26L/T90V): as the sequence (Q99572 whole entry N16P/T19I/R20V/I21V/Q22R/S23N/M24R/N25R/Y26L/Y295A) above, with T90V, A295Y counted along it
T3 sequence (Q99572 whole entry N16P/T19I/R20V/I21V/Q22R/S23N/M24R/N25R/Y26L/M105A): as the sequence (Q99572 whole entry N16P/T19I/R20V/I21V/Q22R/S23N/M24R/N25R/Y26L/Y295A) above, with M105A, A295Y counted along it

Compound	IC50 (P2X7R point mutant H85P)	IC50 [1]	IC50 (P2X7R point mutant M105A)	IC50 (P2X7R point mutant E305A)	IC50 [2]	IC50 (P2X7R point mutant T90V)	IC50 (P2X7R point mutant V304C)	IC50 [3]	IC50 (P2X7R point mutant F103A)	IC50 (P2X7R point mutant Y295A)	effect on antagonist potency relative to P2X7-2Nβ ([1]; chimera 105–114)	fold decrease in antagonist sensitivity relative to P2X7-2Nβ [2]
Cl.Clc1cccc(-c2nnnn2Cc2cccnc2)c1Cl.O [A438079, 3-(5-(2,3-dichlorophenyl)-1H-tetrazol-1-yl)methyl pyridine hydrochloride hydrate]	1 µM	0.501 µM	1.58 µM	0.2 µM	31.6 µM	5.01 µM	0.0631 µM	31.6 µM	> 100 µM	2 µM		
COc1ccc(CC(=O)NC(N=C(NC#N)Nc2cccc3ncccc23)C(C)(C)C)cc1OC (stereo not shown) [A740003, N-[1-[[(cyanoamino)(5-quinolinylamino)methylene]amino]-2,2-dimethylpropyl]-3,4-dimethoxybenzeneacetamide]	0.398 µM	0.1 µM	12.6 µM	0.0251 µM	0.631 µM	0.398 µM	0.1 µM	0.794 µM	0.631 µM	0.158 µM	no effect	~9 fold

— PMC5896373 (Molecular Pharmacology, 2018)
